{
  "source": "patent US20100160385A1",
  "about": "“FUNGICIDAL TRIPHENYL-SUBSTITUTED PYRIDONES” (E.I. DU PONT DE NEMOURS AND COMPANY, priority 2008, published 2010)",
  "key": {"[1]": {"system": "Erysiphe graminis f. sp. tritici", "experiment": "Test A: wheat powdery mildew, preventive spray on wheat seedlings", "format": "in vivo", "conditions": "wheat seedlings sprayed to run-off, inoculated following day, rated after 8 days at 20° C.; 100 = 100% disease control, 0 = no control; test concentration not given"}, "[2]": {"system": "Puccinia recondite f. sp. tritici", "experiment": "Test B: wheat leaf rust, preventive spray on wheat seedlings", "format": "in vivo", "conditions": "wheat seedlings sprayed to run-off, inoculated following day, 24 h saturated atmosphere then 7 days at 20° C.; 100 = 100% disease control, 0 = no control; test concentration not given"}, "[3]": {"system": "Septoria tritici", "experiment": "Test C: wheat leaf blotch, preventive spray on wheat seedlings", "format": "in vivo", "conditions": "wheat seedlings sprayed to run-off, inoculated following day, 48 h saturated atmosphere then 19 days at 20° C.; 100 = 100% disease control, 0 = no control; test concentration not given"}, "[4]": {"system": "Septoria nodorum", "experiment": "Test D: wheat glume blotch, preventive spray on wheat seedlings", "format": "in vivo", "conditions": "wheat seedlings sprayed to run-off, inoculated following day, 48 h saturated atmosphere then 7 days at 20° C.; 100 = 100% disease control, 0 = no control; test concentration not given"}, "[5]": {"system": "Alternaria solani", "conditions": "tomato seedlings sprayed to run-off, inoculated following day, 48 h saturated atmosphere at 27° C. then 5 days at 20° C.; 100 = 100% disease control, 0 = no control; test concentration not given"}, "[6]": {"system": "Botrytis cinerea", "conditions": "tomato seedlings sprayed to run-off, inoculated following day, 48 h saturated atmosphere at 20° C. then 3 days at 24° C.; 100 = 100% disease control, 0 = no control; test concentration not given"}},
  "data": [
    {"smiles": "COc1cc(OC)c(Cl)c(-n2c(-c3ccc(F)cc3)cc(=O)c(C)c2-c2c(F)cc(F)cc2F)c1", "note": "[Compound 1, 1-(2-chloro-3-5-dimethoxyphenyl)-6-(4-fluorophenyl)-3-methyl-2-(2,4,6-trifluorophenyl)-4-(1H)-pyridinone]", "values": [
      {"measurement": "Test A disease control rating", "setting": "[1]", "result": 99, "unit": "%"},
      {"measurement": "Test B disease control rating", "setting": "[2]", "result": 100, "unit": "%"},
      {"measurement": "Test C disease control rating", "setting": "[3]", "result": 97, "unit": "%"},
      {"measurement": "Test D disease control rating", "setting": "[4]", "result": 100, "unit": "%"},
      {"measurement": "Test E disease control rating", "setting": "[5]", "result": 100, "unit": "%"},
      {"measurement": "Test F disease control rating", "setting": "[6]", "result": 98, "unit": "%"}
    ]}
  ]
}
